PubChem BioAssay (NCI)
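Growth conditions: 96-well plates. Treatment: test compound, 48 hours, 5 concentrations. Analysis: linear interpolation between bracketing concentrations; unreached endpoints set to highest concentration. GI50 marks 50% less growth. The concentration for full growth arrest is given as TGI.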

What was measured:
Assay in all cases: NCI-60 cell line screen, 48 h
786-0 renal = system: 786-0 renal
A498 renal = system: A498 renal
A549 NSCLC = system: A549 NSCLC
ACHN renal = system: ACHN renal
BT-549 breast = system: BT-549 breast
CAKI-1 renal = system: CAKI-1 renal
CCRF-CEM leukemia = system: CCRF-CEM leukemia
COLO 205 colon = system: COLO 205 colon
DU-145 prostate = system: DU-145 prostate
EKVX NSCLC = system: EKVX NSCLC
HCC-2998 colon = system: HCC-2998 colon
HCT-116 colon = system: HCT-116 colon
HCT-15 colon = system: HCT-15 colon
HL-60(TB) leukemia = system: HL-60(TB) leukemia
HOP-62 NSCLC = system: HOP-62 NSCLC
HOP-92 NSCLC = system: HOP-92 NSCLC
HS 578T breast = system: HS 578T breast
HT29 colon = system: HT29 colon
IGROV1 ovarian = system: IGROV1 ovarian
K-562 leukemia = system: K-562 leukemia
KM12 colon = system: KM12 colon
LOX IMVI melanoma = system: LOX IMVI melanoma
M14 melanoma = system: M14 melanoma
MALME-3M melanoma = system: MALME-3M melanoma
MCF7 breast = system: MCF7 breast
MDA-MB-231 breast = system: MDA-MB-231 breast
MDA-MB-435 = system: MDA-MB-435
MOLT-4 leukemia = system: MOLT-4 leukemia
NCI-H226 lung = system: NCI-H226 lung
NCI-H23 lung = system: NCI-H23 lung
NCI-H460 lung = system: NCI-H460 lung
NCI-H522 lung = system: NCI-H522 lung
NCI/ADR-RES ovarian = system: NCI/ADR-RES ovarian
OVCAR-3 ovarian = system: OVCAR-3 ovarian
OVCAR-4 ovarian = system: OVCAR-4 ovarian
OVCAR-5 ovarian = system: OVCAR-5 ovarian
OVCAR-8 ovarian = system: OVCAR-8 ovarian
PC-3 prostate = system: PC-3 prostate
RPMI-8226 leukemia = system: RPMI-8226 leukemia
RXF 393 renal = system: RXF 393 renal
SF-268 CNS = system: SF-268 CNS
SF-295 CNS = system: SF-295 CNS
SF-539 CNS = system: SF-539 CNS
SK-MEL-2 melanoma = system: SK-MEL-2 melanoma
SK-MEL-28 melanoma = system: SK-MEL-28 melanoma
SK-MEL-5 melanoma = system: SK-MEL-5 melanoma
SK-OV-3 ovarian = system: SK-OV-3 ovarian
SN12C renal = system: SN12C renal
SNB-19 CNS = system: SNB-19 CNS
SNB-75 CNS = system: SNB-75 CNS
SW-620 colon = system: SW-620 colon
T-47D breast = system: T-47D breast
TK-10 renal = system: TK-10 renal
U251 CNS = system: U251 CNS
UACC-257 melanoma = system: UACC-257 melanoma
UACC-62 melanoma = system: UACC-62 melanoma
UO-31 renal = system: UO-31 renal
SR leukemia = system: SR leukemia

## COc1ccc(C2NN=C3c4ccccc4CCC32)cc1 (centres undefined)
786-0 renal
  GI50: 53.1 µM
  TGI: > 100 µM
A498 renal
  GI50: 19.4 µM
  TGI: 65 µM
A549 NSCLC
  GI50: 19.7 µM
  TGI: 76.6 µM
ACHN renal
  GI50: 24.5 µM
  TGI: > 100 µM
BT-549 breast
  GI50: 5.29 µM
  TGI: 95.4 µM
CAKI-1 renal
  GI50: 9.38 µM
  TGI: 21.4 µM
CCRF-CEM leukemia
  GI50: 4.64 µM
  TGI: > 100 µM
COLO 205 colon
  GI50: 7.8 µM
  TGI: 22.5 µM
DU-145 prostate
  GI50: 19.2 µM
  TGI: 72.6 µM
EKVX NSCLC
  GI50: 1.4 µM
  TGI: 29.3 µM
HCC-2998 colon
  GI50: 12.4 µM
  TGI: > 100 µM
HCT-116 colon
  GI50: 6.85 µM
  TGI: 30.2 µM
HCT-15 colon
  GI50: 3.7 µM
  TGI: > 100 µM
HL-60(TB) leukemia
  GI50: 1.92 µM
  TGI: 5.27 µM
HOP-62 NSCLC
  GI50: 95.3 µM
  TGI: > 100 µM
HOP-92 NSCLC
  GI50: 19.4 µM
  TGI: > 100 µM
HS 578T breast
  GI50: 15 µM
  TGI: > 100 µM
HT29 colon
  GI50: 2.26 µM
  TGI: 12.5 µM
IGROV1 ovarian
  GI50: 2.7 µM
  TGI: 21.4 µM
K-562 leukemia
  GI50: 2.87 µM
  TGI: > 100 µM
KM12 colon
  GI50: 3.99 µM
  TGI: > 100 µM
LOX IMVI melanoma
  GI50: 8.25 µM
  TGI: 33.5 µM
M14 melanoma
  GI50: 6.23 µM
  TGI: > 100 µM
MALME-3M melanoma
  GI50: 5.22 µM
  TGI: 38.4 µM
MCF7 breast
  GI50: 2.56 µM
  TGI: 11.5 µM
MDA-MB-231 breast
  GI50: 17.8 µM
  TGI: > 100 µM
MDA-MB-435
  GI50: 1.57 µM
  TGI: 3.62 µM
MOLT-4 leukemia
  GI50: 4.04 µM
  TGI: > 100 µM
NCI-H226 lung
  GI50: > 100 µM
  TGI: > 100 µM
NCI-H23 lung
  GI50: 12.6 µM
  TGI: 93.3 µM
NCI-H460 lung
  GI50: 4.86 µM
  TGI: 71.3 µM
NCI-H522 lung
  GI50: 3.21 µM
  TGI: 17.7 µM
NCI/ADR-RES ovarian
  GI50: 3.99 µM
  TGI: 38.3 µM
OVCAR-3 ovarian
  GI50: 3.38 µM
  TGI: 14.9 µM
OVCAR-4 ovarian
  GI50: 3.31 µM
  TGI: 24.6 µM
OVCAR-5 ovarian
  GI50: 18.4 µM
  TGI: > 100 µM
OVCAR-8 ovarian
  GI50: 22.1 µM
  TGI: > 100 µM
PC-3 prostate
  GI50: 15.8 µM
  TGI: > 100 µM
RPMI-8226 leukemia
  GI50: 5.36 µM
  TGI: 85.4 µM
RXF 393 renal
  GI50: 23.1 µM
  TGI: > 100 µM
SF-268 CNS
  GI50: 15.7 µM
  TGI: > 100 µM
SF-295 CNS
  GI50: 2.48 µM
  TGI: 13.2 µM
SF-539 CNS
  GI50: 6.73 µM
  TGI: 28.8 µM
SK-MEL-2 melanoma
  GI50: 28.5 µM
  TGI: > 100 µM
SK-MEL-28 melanoma
  GI50: 8.26 µM
  TGI: 76.1 µM
SK-MEL-5 melanoma
  GI50: 3.62 µM
  TGI: 17.1 µM
SK-OV-3 ovarian
  GI50: 20.4 µM
  TGI: > 100 µM
SN12C renal
  GI50: 15.4 µM
  TGI: 79.5 µM
SNB-19 CNS
  GI50: 14.5 µM
  TGI: > 100 µM
SNB-75 CNS
  GI50: 0.284 µM
  TGI: 5.58 µM
SW-620 colon
  GI50: 9.19 µM
  TGI: > 100 µM
T-47D breast
  GI50: 6.12 µM
  TGI: 47.3 µM
TK-10 renal
  GI50: 16.9 µM
  TGI: 71.8 µM
U251 CNS
  GI50: 5.92 µM
  TGI: > 100 µM
UACC-257 melanoma
  GI50: 19.4 µM
  TGI: 79.4 µM
UACC-62 melanoma
  GI50: 8.34 µM
  TGI: > 100 µM
UO-31 renal
  GI50: 24.1 µM
  TGI: > 100 µM

## N#CC1=C(N)NC(N2CCOCC2)=NC12Nc1ccccc1O2 (centres undefined)
786-0 renal
  GI50: 21.5 µM
  TGI: 60.1 µM
A549 NSCLC
  GI50: 70 µM
  TGI: > 100 µM
ACHN renal
  GI50: 34 µM
  TGI: > 100 µM
BT-549 breast
  GI50: 43.5 µM
  TGI: > 100 µM
CAKI-1 renal
  GI50: 25.3 µM
  TGI: 86.7 µM
CCRF-CEM leukemia
  GI50: 44 µM
  TGI: > 100 µM
COLO 205 colon
  GI50: 67.7 µM
  TGI: > 100 µM
DU-145 prostate
  GI50: 59.3 µM
  TGI: > 100 µM
EKVX NSCLC
  GI50: > 100 µM
  TGI: > 100 µM
HCT-15 colon
  GI50: 38.2 µM
  TGI: > 100 µM
HL-60(TB) leukemia
  GI50: 48.3 µM
  TGI: > 100 µM
HOP-62 NSCLC
  GI50: 14 µM
  TGI: 51.3 µM
HOP-92 NSCLC
  GI50: > 100 µM
  TGI: > 100 µM
HS 578T breast
  GI50: 23.6 µM
  TGI: 68.1 µM
HT29 colon
  GI50: 47.2 µM
  TGI: > 100 µM
IGROV1 ovarian
  GI50: 9.47 µM
  TGI: 57.5 µM
K-562 leukemia
  GI50: 39.2 µM
  TGI: > 100 µM
KM12 colon
  GI50: 49.8 µM
  TGI: > 100 µM
LOX IMVI melanoma
  GI50: 23.7 µM
  TGI: 81 µM
M14 melanoma
  GI50: 39.6 µM
  TGI: > 100 µM
MALME-3M melanoma
  GI50: > 100 µM
  TGI: > 100 µM
MCF7 breast
  GI50: 23.3 µM
  TGI: 64.2 µM
MDA-MB-231 breast
  GI50: 89.9 µM
  TGI: > 100 µM
MDA-MB-435
  GI50: 23.5 µM
  TGI: 70.2 µM
MOLT-4 leukemia
  GI50: 43 µM
  TGI: > 100 µM
NCI-H226 lung
  GI50: 98.7 µM
  TGI: > 100 µM
NCI-H23 lung
  GI50: 29.5 µM
  TGI: > 100 µM
NCI-H460 lung
  GI50: 46.1 µM
  TGI: > 100 µM
NCI-H522 lung
  GI50: 23 µM
  TGI: 75 µM
NCI/ADR-RES ovarian
  GI50: 34.2 µM
  TGI: > 100 µM
OVCAR-3 ovarian
  GI50: 25.1 µM
  TGI: 84.8 µM
OVCAR-4 ovarian
  GI50: > 100 µM
  TGI: > 100 µM
OVCAR-5 ovarian
  GI50: > 100 µM
  TGI: > 100 µM
OVCAR-8 ovarian
  GI50: 80.6 µM
  TGI: > 100 µM
PC-3 prostate
  GI50: 31.8 µM
  TGI: > 100 µM
RPMI-8226 leukemia
  GI50: 15.4 µM
  TGI: 61.3 µM
RXF 393 renal
  GI50: 61.5 µM
  TGI: > 100 µM
SF-268 CNS
  GI50: 33.8 µM
  TGI: > 100 µM
SF-295 CNS
  GI50: 38.5 µM
  TGI: > 100 µM
SF-539 CNS
  GI50: 78.7 µM
  TGI: > 100 µM
SK-MEL-2 melanoma
  GI50: 39.7 µM
  TGI: > 100 µM
SK-MEL-28 melanoma
  GI50: > 100 µM
  TGI: > 100 µM
SK-MEL-5 melanoma
  GI50: 22.7 µM
  TGI: > 100 µM
SK-OV-3 ovarian
  GI50: > 100 µM
  TGI: > 100 µM
SN12C renal
  GI50: 96.4 µM
  TGI: > 100 µM
SNB-19 CNS
  GI50: 90.7 µM
  TGI: > 100 µM
SNB-75 CNS
  GI50: > 100 µM
  TGI: > 100 µM
SR leukemia
  GI50: 27.7 µM
  TGI: > 100 µM
SW-620 colon
  GI50: 43.2 µM
  TGI: > 100 µM
T-47D breast
  GI50: 80.3 µM
  TGI: > 100 µM
TK-10 renal
  GI50: 34 µM
  TGI: > 100 µM
U251 CNS
  GI50: 45.8 µM
  TGI: > 100 µM
UACC-257 melanoma
  GI50: 49.7 µM
  TGI: > 100 µM
UACC-62 melanoma
  GI50: 53.9 µM
  TGI: > 100 µM
UO-31 renal
  GI50: 31.9 µM
  TGI: > 100 µM
